Laboratory results taken from article PMC11274883, “Anticancer Effect of Pt^[sequence], Pt^II5MESS, Pt^II56MESS and Their Platinum(IV)-Dihydroxy Derivatives against Triple-Negative Breast Cancer and Cisplatin-Resistant Colorectal Cancer” (Cancers, 2024).

Key:
Format in all cases: cell-based
MCF−7 = experiment: WST-1 cytotoxicity, 72 h
Method in brief: (§1)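 Cells were seeded at 1000 per well and exposed to compound for 72 h. Viability was then read with WST-1 (1 h, absorbance at 450 nm). Apparent IC50 values came from nonlinear regression of % survival across three experiments, each with n = 3.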

ADDP = experiment: WST-1 cytotoxicity, 72 h
Method in brief: as §1

A2780 = experiment: WST-1 cytotoxicity, 72 h
Method in brief: as §1

MDA−MB−231 = experiment: WST-1 cytotoxicity, 72 h
Method in brief: as §1

HT29 = experiment: WST-1 cytotoxicity, 72 h
Method in brief: as §1

HT29 cells = experiment: Western blot protein expression; conditions: HT29, IC50, 72 h
Method in brief: (§2)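 Cells were lysed in RIPA buffer with orthovanadate, and 20 µg protein was run on SDS-PAGE, transferred to PVDF and probed for proliferation, apoptosis, microtubule and autophagy markers. ECL band intensities were normalised to GAPDH and then to untreated control. Three independent experiments were run per marker.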

MDA−MB−231 cells = experiment: Western blot protein expression; conditions: MDA−MB−231, IC50, 72 h
Method in brief: as §2

MCF10A = experiment: WST-1 cytotoxicity, 72 h; conditions: mean ± SEM
Method in brief: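 Cells seeded at 1000 per well, with WST-1 added after 72 h and absorbance read at 450 nm 1 h later. Apparent IC50 from a nonlinear fit of % survival versus log concentration; three separate experiments, each n = 3.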

[1] = representative blot Figure S30G
[2] = representative blot Figure S30H

For `Cc1cc2cccnc2c2ncccc12.N[C@H]1CCCC[C@@H]1N.O=[N+]([O-])[O-].O=[N+]([O-])[O-].[OH][Pt+2][OH]` [Pt^IV5MESS(OH)2, [Pt(5-methyl-1,10-phenanthroline)(1S,2S-diaminocyclohexane)(dihydroxy)](NO3)2], the “Selective cytotoxicity index (SCI)” value (MCF−7; IC50 MCF10A/IC50 MCF−7) was 5.66, the “potency relative to cisplatin” value (MCF−7; MCF−7, 72 h) was 15 fold and the IC50 (MCF−7; MCF−7, 72 h, mean ± SEM) was 2.16 ± 1.53 µM. The “potency relative to cisplatin” value (ADDP; ADDP, 72 h) was 15 fold, the IC50 (ADDP; ADDP, 72 h, mean ± SEM) was 7.71 ± 1.31 µM and the “Selective cytotoxicity index (SCI)” value (ADDP; IC50 MCF10A/IC50 ADDP) was 1.58. For the same compound, the “potency relative to cisplatin” value (A2780; A2780, 72 h) was 10 fold, the IC50 (A2780; A2780, 72 h, mean ± SEM) was 2.14 ± 1.38 µM and the “Selective cytotoxicity index (SCI)” value (A2780; IC50 MCF10A/IC50 A2780) was 5.71. For the same compound, the “Selective cytotoxicity index (SCI)” value (MDA−MB−231; IC50 MCF10A/IC50 MDA−MB−231) was 4.38, the “potency relative to cisplatin” value (MDA−MB−231; MDA−MB−231, 72 h) was 5 fold and the IC50 (MDA−MB−231; MDA−MB−231, 72 h, mean ± SEM) was 2.79 ± 1.39 µM. The “potency relative to cisplatin” value (HT29; HT29, 72 h) was 21 fold, the IC50 (HT29; HT29, 72 h, mean ± SEM) was 3.64 ± 1.45 µM and the “Selective cytotoxicity index (SCI)” value (HT29; IC50 MCF10A/IC50 HT29) was 3.36. For the same compound, the “β-actin/GAPDH normalized to control (1)” value (HT29 cells; representative blot Figure S28A) was 0.2948, the “β-tubulin/GAPDH normalized to control (1)” value (HT29 cells; representative blot Figure S28B) was 0.1611 and the “α-tubulin/GAPDH normalized to control (1)” value (HT29 cells; representative blot Figure S28C) was 0.1518. The “p-AKT/AKT/GAPDH normalized to control (1)” value (HT29 cells; representative blot Figure S29A) was 0.4249, the “p-ERK/ERK/GAPDH normalized to control (1)” value (HT29 cells; representative blot Figure S29B) was 1.297 and the “p53/GAPDH normalized to control (1)” value (HT29 cells; representative blot Figure S29C) was 3.349. For the same compound, the “p21/GAPDH normalized to control (1)” value (HT29 cells; representative blot Figure S29D) was 2.658, the “Bax/GAPDH normalized to control (1)” value (HT29 cells; representative blot Figure S30A) was 3.075 and the “Bcl2/GAPDH normalized to control (1)” value (HT29 cells; representative blot Figure S30B) was 0.4381. For the same compound, the “Cyt C/GAPDH normalized to control (1)” value (HT29 cells; representative blot Figure S30C) was 6.184, the “Procaspase 8/GAPDH normalized to control (1)” value (HT29 cells; representative blot Figure S30D) was 0.4372 and the “Cleaved BID/GAPDH normalized to control (1)” value (HT29 cells; representative blot Figure S30E) was 2.712. For the same compound, the “Procaspase 9/GAPDH normalized to control (1)” value (HT29 cells; representative blot Figure S30F) was 0.2026, the “Cleaved caspase 3/GAPDH normalized to control (1)” value (HT29 cells; [1]) was 7.887 and the “Procaspase 3/GAPDH normalized to control (1)” value (HT29 cells; [1]) was 1.238. The “Cleaved PARP-1/GAPDH normalized to control (1)” value (HT29 cells; [2]) was 5.761, the “PARP-1/GAPDH normalized to control (1)” value (HT29 cells; [2]) was 0.6207 and the “Beclin1/GAPDH normalized to control (1)” value (HT29 cells; representative blot Figure S31A) was 6.943. For the same compound, the “ATG5/GAPDH normalized to control (1)” value (HT29 cells; representative blot Figure S31B) was 0.2364, the “ATG16L1/GAPDH normalized to control (1)” value (HT29 cells; representative blot Figure S31C) was 2.006 and the “ATG9A/GAPDH normalized to control (1)” value (HT29 cells; representative blot Figure S31D) was 2.334. The “ATG4B/GAPDH normalized to control (1)” value (HT29 cells; representative blot Figure S31E) was 0.5922, the “LC3B/GAPDH normalized to control (1)” value (HT29 cells; representative blot Figure S31F) was 1.713 and the “β-actin/GAPDH normalized to control (1)” value (MDA−MB−231 cells; representative blot Figure S24A) was 0.8788. For the same compound, the “β-tubulin/GAPDH normalized to control (1)” value (MDA−MB−231 cells; representative blot Figure S24B) was 0.3985, the “α-tubulin/GAPDH normalized to control (1)” value (MDA−MB−231 cells; representative blot Figure S24C) was 1.177 and the “p-AKT/AKT/GAPDH normalized to control (1)” value (MDA−MB−231 cells; representative blot Figure S25A) was 0.9345. The “p-ERK/ERK/GAPDH normalized to control (1)” value (MDA−MB−231 cells; representative blot Figure S25B) was 0.144, the “p53/GAPDH normalized to control (1)” value (MDA−MB−231 cells; representative blot Figure S25C) was 1.183 and the “p21/GAPDH normalized to control (1)” value (MDA−MB−231 cells; representative blot Figure S25D) was 1.042. For the same compound, the “Bax/GAPDH normalized to control (1)” value (MDA−MB−231 cells; representative blot Figure S26A) was 1.846, the “Bcl2/GAPDH normalized to control (1)” value (MDA−MB−231 cells; representative blot Figure S26B) was 0.7914 and the “Cytochrome C/GAPDH normalized to control (1)” value (MDA−MB−231 cells; representative blot Figure S26C) was 2.795. For the same compound, the “Procaspase 8/GAPDH normalized to control (1)” value (MDA−MB−231 cells; representative blot Figure S26D) was 0.3546, the “Cleaved BID/GAPDH normalized to control (1)” value (MDA−MB−231 cells; representative blot Figure S26E) was 5.948 and the “Procaspase 9/GAPDH normalized to control (1)” value (MDA−MB−231 cells; representative blot Figure S26F) was 0.3022. The “Procaspase 3/GAPDH normalized to control (1)” value (MDA−MB−231 cells; representative blot Figure S26G) was 0.7167, the “PARP-1/GAPDH normalized to control (1)” value (MDA−MB−231 cells; representative blot Figure S26H) was 0.5187 and the “Beclin1/GAPDH normalized to control (1)” value (MDA−MB−231 cells; representative blot Figure S27A) was 0.9374. The “ATG5/GAPDH normalized to control (1)” value (MDA−MB−231 cells; representative blot Figure S27B) was 1.065, the “ATG16L1/GAPDH normalized to control (1)” value (MDA−MB−231 cells; representative blot Figure S27C) was 1.203 and the “ATG9A/GAPDH normalized to control (1)” value (MDA−MB−231 cells; representative blot Figure S27D) was 0.3984. The “ATG4B/GAPDH normalized to control (1)” value (MDA−MB−231 cells; representative blot Figure S27E) was 2.797, the “LC3B/GAPDH normalized to control (1)” value (MDA−MB−231 cells; representative blot Figure S27F) was 0.6059 and the IC50 (MCF10A) was 12.2 ± 1.48 µM.
